Results published in US9920032B2, “Heterocyclic compounds useful as pim kinase inhibitors” (Incyte Corporation, priority 2015, dated 2018).

How the values were obtained:
Type in all cases: biochemical
[1] = target: Pim-2 (Homo sapiens (Human), UniProt Q9P1W9); assay: Pim-2 kinase assay; settings: 1 mM ATP; read-out: PIM2 IC50
In short: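 TR-FRET assay with 1 nM enzyme, 0.05 μM fluorescein-CREBtide and 1 mM ATP in Tris pH 7.5 buffer with MgCl2, DTT, BSA and Tween-20, run 2 h at 25° C. Stopped with EDTA and Tb-labelled anti-CREB pSer133 antibody, then read after 30 min at room temperature.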

[2] = target: Pim-3 (Homo sapiens (Human), UniProt Q86V86); assay: Pim-3 kinase assay; settings: 1 mM ATP; read-out: PIM3 IC50
In short: (§1)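 Biotin-BAD peptide (0.05 μM) phosphorylated with 1 mM ATP by 2.5 pM Pim-1 or 1.25 pM Pim-3 in Tris pH 7.5/MgCl2/DTT buffer, 1 h at 25° C. EDTA stop; phospho-BAD (Ser112) antibody with streptavidin donor and Protein-A acceptor beads, 1 h dark at room temperature before AlphaScreen-type bead read.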

[3] = target: Pim-1 (Homo sapiens (Human), UniProt P11309); assay: Pim-1 kinase assay; settings: 1 mM ATP; read-out: PIM1 IC50
In short: as §1

Chain of Pim-1 (P11309 whole entry): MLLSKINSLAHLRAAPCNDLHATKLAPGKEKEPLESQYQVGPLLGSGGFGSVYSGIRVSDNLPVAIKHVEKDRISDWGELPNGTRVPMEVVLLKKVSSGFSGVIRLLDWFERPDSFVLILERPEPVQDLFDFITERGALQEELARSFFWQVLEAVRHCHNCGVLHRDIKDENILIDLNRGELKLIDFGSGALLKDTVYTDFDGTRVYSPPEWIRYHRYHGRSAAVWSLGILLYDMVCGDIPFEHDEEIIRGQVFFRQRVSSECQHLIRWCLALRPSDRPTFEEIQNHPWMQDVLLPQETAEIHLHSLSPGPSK
Chain of Pim-2 (Q9P1W9 whole entry): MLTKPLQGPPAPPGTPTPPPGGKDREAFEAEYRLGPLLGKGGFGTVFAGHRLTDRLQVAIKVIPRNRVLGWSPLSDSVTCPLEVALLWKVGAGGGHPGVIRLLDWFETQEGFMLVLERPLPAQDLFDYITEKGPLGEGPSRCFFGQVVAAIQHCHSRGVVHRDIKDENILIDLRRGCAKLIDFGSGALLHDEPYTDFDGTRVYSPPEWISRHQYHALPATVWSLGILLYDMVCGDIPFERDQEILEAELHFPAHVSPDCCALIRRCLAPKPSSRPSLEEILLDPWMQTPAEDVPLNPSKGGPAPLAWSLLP

| SMILES | IC50 [1] [nM] | IC50 [2] [nM] | IC50 [3] [nM] |
| --- | --- | --- | --- |
| COC(=O)N1C[C@H]2C[C@@H]1CN2c1cnc2c(C(=O)Nc3cnccc3[C@@H]3C[C@H](C)C[C@H](N)C3)ccc(F)c2c1 [Example 90, (1R,4R)-Methyl 5-(8-(4-((1R,3S,5S)-3-amino-5-methylcyclohexyl)pyridin-3-ylcarbamoyl)-5-fluoroquinolin-3-yl)-2,5-diazabicyclo[2.2.1]heptane-2-carboxylate] | ≤ 100 | ≤ 10 | ≤ 10 |
| C[C@@H]1C[C@H](N)C[C@H](c2ccncc2NC(=O)c2ccc(F)c3cc(-c4c(F)cccc4F)nnc23)C1 [Example 91, N-{4-[(1R,3S,5S)-3-amino-5-methylcyclohexyl]pyridin-3-yl}-3-(2,6-difluorophenyl)-5-fluorocinnoline-8-carboxamide] | 1000 to 10000 | 10 to 50 | ≤ 10 |
| CCc1cc2c(F)ccc(C(=O)Nc3cnccc3[C@@H]3C[C@H](C)C[C@H](N)C3)c2nn1 [Example 92, N-{4-[(1R,3S,5S)-3-Amino-5-methylcyclohexyl]pyridin-3-yl}-3-ethyl-5-fluorocinnoline-8-carboxamide] | 1000 to 10000 | 10 to 50 | ≤ 10 |
| CC1CCCCN1c1cc2c(F)ccc(C(=O)Nc3cnccc3[C@@H]3C[C@H](C)C[C@H](N)C3)c2nn1 (stereo partly drawn) [Example 93, N-{4-[(1R,3S,5S)-3-Amino-5-methylcyclohexyl]pyridin-3-yl}-5-fluoro-3-(2-methylpiperidin-1-yl)cinnoline-8-carboxamide] | ≤ 100 | ≤ 10 | ≤ 10 |
| C[C@@H]1C[C@H](N)C[C@H](c2ccncc2NC(=O)c2ccc(F)c3cc(N4CCOC[C@H]4C)nnc23)C1 [Example 94, N-{4-[(1R,3S,5S)-3-Amino-5-methylcyclohexyl]pyridin-3-yl}-5-fluoro-3-[(3R)-3-methylmorpholin-4-yl]cinnoline-8-carboxamide] | ≤ 100 | ≤ 10 | ≤ 10 |
| C[C@@H]1C[C@H](N)C[C@H](c2ccncc2NC(=O)c2ccc(F)c3cc(N4CCC[C@H]4C)nnc23)C1 [Example 95, N-{4-[(1R,3S,5S)-3-Amino-5-methylcyclohexyl]pyridin-3-yl}-5-fluoro-3-[(2R)-2-methylpyrrolidin-1-yl]cinnoline-8-carboxamide] | ≤ 100 | ≤ 10 | ≤ 10 |
| C[C@@H]1C[C@H](N)C[C@H](c2ccncc2NC(=O)c2ccc(F)c3cc(N4CC5CCC4C5)cnc23)C1 (stereo partly drawn) [Example 96, N-(4-((1R,3S,5S)-3-Amino-5-methylcyclohexyl)pyridin-3-yl)-3-(2-azabicyclo[2.2.1]heptan-2-yl)-5-fluoroquinoline-8-carboxamide] | ≤ 100 | ≤ 10 | ≤ 10 |
| C[C@@H]1C[C@H](N)C[C@H](c2ccncc2NC(=O)c2ccc(F)c3cc(N(C)c4ccccc4F)cnc23)C1 [Example 97, N-(4-((1R,3S,5S)-3-Amino-5-methylcyclohexyl)pyridin-3-yl)-5-fluoro-3-((2-fluorophenyl)(methyl)amino)quinoline-8-carboxamide] | ≤ 100 | ≤ 10 | ≤ 10 |
| C[C@@H]1C[C@H](N)C[C@H](c2ccncc2NC(=O)c2ccc(F)c3cc(N4C5CCC4CC(O)C5)cnc23)C1 (stereo partly drawn) [Example 98, N-(4-((1R,3S,5S)-3-Amino-5-methylcyclohexyl)pyridin-3-yl)-5-fluoro-3-(3-hydroxy-8-azabicyclo[3.2.1]octan-8-yl)quinoline-8-carboxamide] | ≤ 100 | ≤ 10 | ≤ 10 |
| C[C@@H]1C[C@H](N)C[C@H](c2ccncc2NC(=O)c2ccc(F)c3cc(N4CC(=O)N(C)C[C@H]4C)cnc23)C1 [Example 99, N-(4-((1R,3S,5S)-3-Amino-5-methylcyclohexyl)pyridin-3-yl)-3-((R)-2,4-dimethyl-5-oxopiperazin-1-yl)-5-fluoroquinoline-8-carboxamide] | ≤ 100 | ≤ 10 | ≤ 10 |
| C[C@@H]1C[C@H](N)C[C@H](c2ccncc2NC(=O)c2ccc(F)c3cc(N4CC(=O)N5CCCC[C@@H]5C4)cnc23)C1 [Example 100, N-(4-((1R,3S,5S)-3-Amino-5-methylcyclohexyl)pyridin-3-yl)-5-fluoro-3-((R)-4-oxodihydro-1H-pyrido[1,2-a]pyrazin-2(6H,7H,8H,9H,9aH)-yl)quinoline-8-carboxamide] | ≤ 100 | ≤ 10 | ≤ 10 |
| COC1CCCN(c2cnc3c(C(=O)Nc4cnccc4[C@@H]4C[C@H](C)C[C@H](N)C4)ccc(F)c3c2)CC1 (stereo partly drawn) [Example 101, N-(4-((1R,3S,5S)-3-Amino-5-methylcyclohexyl)pyridin-3-yl)-5-fluoro-3-(4-methoxyazepan-1-yl)quinoline-8-carboxamide] | ≤ 100 | ≤ 10 | ≤ 10 |
| C[C@@H]1C[C@H](N)C[C@H](c2ccncc2NC(=O)c2ccc(F)c3cc(N4CCCOCC4)cnc23)C1 [Example 102, N-(4-((1R,3S,5S)-3-Amino-5-methylcyclohexyl)pyridin-3-yl)-5-fluoro-3-(1,4-oxazepan-4-yl)quinoline-8-carboxamide] | ≤ 100 | ≤ 10 | ≤ 10 |
| C[C@@H]1C[C@H](N)C[C@H](c2ccncc2NC(=O)c2ccc(F)c3cc(N4CC5(CC(O)C5)C4)cnc23)C1 [Example 103, N-(4-((1R,3S,5S)-3-Amino-5-methylcyclohexyl)pyridin-3-yl)-5-fluoro-3-(6-hydroxy-2-azaspiro[3.3]heptan-2-yl)quinoline-8-carboxamide] | ≤ 100 | ≤ 10 | ≤ 10 |
| C[C@@H]1C[C@H](N)C[C@H](c2ccncc2NC(=O)c2ccc(F)c3cc(N4CCCC(O)CC4)cnc23)C1 (stereo partly drawn) [Example 104, N-(4-((1R,3S,5S)-3-Amino-5-methylcyclohexyl)pyridin-3-yl)-5-fluoro-3-(4-hydroxyazepan-1-yl)quinoline-8-carboxamide] | ≤ 100 | ≤ 10 | ≤ 10 |
| C[C@@H]1C[C@H](N)C[C@H](c2ccncc2NC(=O)c2ccc(F)c3cc(N4CCC[C@@H](C)C4)cnc23)C1 [Example 105, N-(4-((1R,3S,5S)-3-Amino-5-methylcyclohexyl)pyridin-3-yl)-5-fluoro-3-((R)-3-methylpiperidin-1-yl)quinoline-8-carboxamide] | ≤ 100 | ≤ 10 | ≤ 10 |
| C[C@@H]1C[C@H](N)C[C@H](c2ccncc2NC(=O)c2ccc(F)c3cc(N4C5CCCC4COC5)cnc23)C1 [Example 106, N-(4-((1R,3S,5S)-3-Amino-5-methylcyclohexyl)pyridin-3-yl)-3-(3-oxa-9-azabicyclo[3.3.1]nonan-9-yl)-5-fluoroquinoline-8-carboxamide] | ≤ 100 | ≤ 10 | ≤ 10 |
| C[C@@H]1C[C@H](N)C[C@H](c2ccncc2NC(=O)c2ccc(F)c3cc(N4CC5(CCC5)C4)cnc23)C1 [Example 107, N-(4-((1R,3S,5S)-3-Amino-5-methylcyclohexyl)pyridin-3-yl)-5-fluoro-3-(2-azaspiro[3.3]heptan-2-yl)quinoline-8-carboxamide] | ≤ 100 | ≤ 10 | ≤ 10 |
| C[C@@H]1C[C@H](N)C[C@H](c2ccncc2NC(=O)c2ccc(F)c3cc(N4CC[C@H](O)[C@@H](F)C4)cnc23)C1 [Example 108, N-(4-((1R,3S,5S)-3-Amino-5-methylcyclohexyl)pyridin-3-yl)-5-fluoro-3-((3S,4S)-3-fluoro-4-hydroxypiperidin-1-yl)quinoline-8-carboxamide] | ≤ 100 | ≤ 10 | ≤ 10 |
| C[C@@H]1C[C@H](N)C[C@H](c2ccncc2NC(=O)c2ccc(F)c3cc(N4CCCCO4)cnc23)C1 [Example 109, N-(4-((1R,3S,5S)-3-amino-5-methylcyclohexyl)pyridin-3-yl)-5-fluoro-3-(1,2-oxazinan-2-yl)quinoline-8-carboxamide] | ≤ 100 | ≤ 10 | ≤ 10 |
| C[C@@H]1C[C@H](N)C[C@H](c2ccncc2NC(=O)c2ccc(F)c3cc(N4CC5COCC5C4)cnc23)C1 (stereo partly drawn) [Example 110, N-(4-((1R,3S,5S)-3-Amino-5-methylcyclohexyl)pyridin-3-yl)-3-(dihydro-1H-furo[3,4-c]pyrrol-5(3H,6H,6aH)-yl)-5-fluoroquinoline-8-carboxamide] | ≤ 100 | ≤ 10 | ≤ 10 |
| CC1CN(c2cnc3c(C(=O)Nc4cnccc4[C@@H]4C[C@H](C)C[C@H](N)C4)ccc(F)c3c2)C1 [Example 111, N-(4-((1R,3S,5S)-3-Amino-5-methylcyclohexyl)pyridin-3-yl)-5-fluoro-3-(3-methylazetidin-1-yl)quinoline-8-carboxamide] | ≤ 100 | ≤ 10 | ≤ 10 |
| C[C@@H]1C[C@H](N)C[C@H](c2ccncc2NC(=O)c2ccc(F)c3cc(N4CCN(C)C(=O)[C@@H]4C)cnc23)C1 [Example 112, N-(4-((1R,3S,5S)-3-Amino-5-methylcyclohexyl)pyridin-3-yl)-3-((5)-2,4-dimethyl-3-oxopiperazin-1-yl)-5-fluoroquinoline-8-carboxamide] | ≤ 100 | ≤ 10 | ≤ 10 |
| C[C@@H]1C[C@H](N)C[C@H](c2ccncc2NC(=O)c2ccc(F)c3cc(N4CCC[C@H](C)C4)cnc23)C1 [Example 113, N-(4-((1R,3S,5S)-3-Amino-5-methylcyclohexyl)pyridin-3-yl)-5-fluoro-3-((S)-3-methylpiperidin-1-yl)quinoline-8-carboxamide] | ≤ 100 | ≤ 10 | ≤ 10 |
